Measured values reported in patent US20080300225A1, “PESTICIDAL FORMULATION CONTAINING OXYMATRINE OR MATRINE” (Marrone Organic Innovations, priority 2007, published 2008).
Values joined by “and” are separate entries in the source; they are usually repeats but may differ in a detail not shown here. Equal values may be shown once. Read-outs that look alike come from different tables or passages of the source.

System: Armyworms (Spodoptera exigua)
Assay: Contact study on armyworm first instar larvae
Assay type: in vivo
Details: for mode of insecticidal action: contact exposure of first instar larvae
Source text: Contact Study of MOI 201 on Armyworms (Spodoptera exigua)
Objective: Observe the mode of action and the symptoms caused by 0.6% oxymatrine on larvae of armyworms, as well as to quantify the time required for the larvae to become paralyzed or dead.
Method: Larvae of beet armyworm were taken as first In-star stage and placed on a microscope slide under a stereomicroscope. A drop of the test product was delivered over them and the larvae were left to soak for 30 seconds. Excess liquid was absorbed with a paper towel and the larvae were observed under the microscope. The products tested were Spinosad at 0.3%, Permethrin at 1%, and 0.6% oxymatrine at 800× and 1000× dilutions. Time 1 indicates the time it took before the larva was unable to perform normal activities like crawling, feeding, etc. Time 2 is the additional time needed for complete elimination/death.

[1] = Spinosad at 0.3%, Permethrin at 1%, 30 s soak, average of 5 reps
[2] = Spinosad at 0.3%, Permethrin at 1%, 30 s soak, reps 1-5

CC1(C)C(C=C(Cl)Cl)C1C(=O)OCc1cccc(Oc2ccccc2)c1 (centres unmarked) [Permethrin]
Time 1: time required for paralysis or convulsions, Average: 1.22 min
period of time to affect the insect's basic functions: 1.2 min
Time 2: time between paralysis and death, Average [1]: 333.60 min
Time 2: time between paralysis and death, single replicate [2]: 447 min and 428 min and 397 min and 97 min and 299 min
mode of insecticidal action: work as contact insecticides

Spinosad
Time 1: time required for paralysis or convulsions, Average [1]: 6.99 min
Time 2: time between paralysis and death, Average [1]: 289.00 min
Time 1: time required for paralysis or convulsions, single replicate [2]: 7.58 min and 8.46 min and 6.33 min and 6.4 min and 6.17 min
Time 2: time between paralysis and death, single replicate [2]: 146 min and 180 min and 363 min and 373 min and 383 min
mode of insecticidal action: work as contact insecticides
period of time to affect the insect's basic functions (text summary of Time 1, Spinosad 0.3%, Permethrin 1%, 0.6% oxymatrine at 800x and 1000x dilutions): 7.0 min
